The values that follow come from US20090099029A1, “Methods and substrates for conducting assays” (Invitrogen Corporation, priority 2005, published 2009).

Holding throughout (test): Further analysis of a plurality of inhibitors and a plurality of kinases (Table 5 inhibition results)
Format in all cases: biochemical
What all share (design): scale not given here

Assay [1] deals with kinases of Table 5 (Homo sapiens, UniProt P07949). The conditions noted are these: for Inhibition level: kinase RET; for Inhibition Results (Level): kinase RET (Part II, plate B7, Domain 1). An excerpt:
(§1) The wash solution is then discarded.

The target of assay [2] is T1, kinases of Table 5 (Homo sapiens, UniProt P29323).
T1 sequence (P29323 19-1055): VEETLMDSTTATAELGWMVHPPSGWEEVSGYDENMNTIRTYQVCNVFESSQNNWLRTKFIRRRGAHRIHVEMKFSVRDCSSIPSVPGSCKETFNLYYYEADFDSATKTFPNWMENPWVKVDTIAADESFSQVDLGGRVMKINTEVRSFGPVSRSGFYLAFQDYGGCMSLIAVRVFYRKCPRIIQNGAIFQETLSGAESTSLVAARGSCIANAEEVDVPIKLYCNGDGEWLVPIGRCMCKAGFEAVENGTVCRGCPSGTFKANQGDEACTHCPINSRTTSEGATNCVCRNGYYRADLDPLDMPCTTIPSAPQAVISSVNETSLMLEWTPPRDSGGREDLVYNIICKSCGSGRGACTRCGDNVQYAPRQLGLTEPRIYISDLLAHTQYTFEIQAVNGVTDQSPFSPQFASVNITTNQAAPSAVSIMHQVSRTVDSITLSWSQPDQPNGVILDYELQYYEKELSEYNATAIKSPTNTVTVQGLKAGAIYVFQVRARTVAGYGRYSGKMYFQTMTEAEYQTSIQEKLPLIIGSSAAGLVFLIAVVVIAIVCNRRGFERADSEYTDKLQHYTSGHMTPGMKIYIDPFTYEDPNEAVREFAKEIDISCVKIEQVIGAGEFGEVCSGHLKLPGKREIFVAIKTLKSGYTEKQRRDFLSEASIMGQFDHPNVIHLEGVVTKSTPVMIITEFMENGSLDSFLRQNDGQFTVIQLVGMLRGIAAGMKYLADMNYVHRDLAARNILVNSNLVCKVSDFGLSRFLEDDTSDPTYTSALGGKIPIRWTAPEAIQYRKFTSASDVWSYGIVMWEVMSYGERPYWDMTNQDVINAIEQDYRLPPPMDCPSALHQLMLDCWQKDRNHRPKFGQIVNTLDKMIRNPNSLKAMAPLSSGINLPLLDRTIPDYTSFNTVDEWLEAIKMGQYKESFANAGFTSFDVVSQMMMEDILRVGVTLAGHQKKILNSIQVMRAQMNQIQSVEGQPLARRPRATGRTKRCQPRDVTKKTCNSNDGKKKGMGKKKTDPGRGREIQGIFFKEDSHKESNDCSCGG
The conditions noted are these: kinase EPHB2 (Part I, plate E5, Domain 1).
Description: as §1

Assay [3] deals with T2, kinases of Table 5 (Homo sapiens, UniProt Q8IVH8).
T2 sequence (Q8IVH8 1-894): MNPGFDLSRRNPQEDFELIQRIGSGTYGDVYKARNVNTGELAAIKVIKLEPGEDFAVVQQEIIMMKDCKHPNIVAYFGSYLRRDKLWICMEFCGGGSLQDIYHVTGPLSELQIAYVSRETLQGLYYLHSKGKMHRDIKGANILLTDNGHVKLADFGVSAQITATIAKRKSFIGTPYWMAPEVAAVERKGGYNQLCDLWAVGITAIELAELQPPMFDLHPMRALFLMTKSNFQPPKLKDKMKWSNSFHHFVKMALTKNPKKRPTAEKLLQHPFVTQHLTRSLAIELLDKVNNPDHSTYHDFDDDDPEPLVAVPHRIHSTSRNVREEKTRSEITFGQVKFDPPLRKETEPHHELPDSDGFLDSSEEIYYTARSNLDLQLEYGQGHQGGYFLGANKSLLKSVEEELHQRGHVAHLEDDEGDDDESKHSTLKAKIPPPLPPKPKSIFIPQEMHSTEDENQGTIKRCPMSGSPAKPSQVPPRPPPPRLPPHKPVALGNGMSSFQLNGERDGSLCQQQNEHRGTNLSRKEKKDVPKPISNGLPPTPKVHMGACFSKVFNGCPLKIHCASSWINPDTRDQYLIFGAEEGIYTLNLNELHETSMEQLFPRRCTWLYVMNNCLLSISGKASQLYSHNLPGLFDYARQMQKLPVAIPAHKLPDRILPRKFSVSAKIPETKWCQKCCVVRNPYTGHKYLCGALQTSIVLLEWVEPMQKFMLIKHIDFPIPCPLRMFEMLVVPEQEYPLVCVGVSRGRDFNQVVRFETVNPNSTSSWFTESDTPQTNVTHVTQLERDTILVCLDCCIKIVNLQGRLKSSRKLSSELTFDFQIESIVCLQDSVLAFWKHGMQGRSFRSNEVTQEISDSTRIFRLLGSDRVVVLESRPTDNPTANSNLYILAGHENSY
The conditions noted are these: kinase MAP4K3 (Part I, plate C5, Domain 1); inhibitor 100 uM.
Description: as §1

Assay [4] addresses T3, kinases of Table 5 (Homo sapiens, UniProt Q9UHD2).
T3 sequence (Q9UHD2 1-729): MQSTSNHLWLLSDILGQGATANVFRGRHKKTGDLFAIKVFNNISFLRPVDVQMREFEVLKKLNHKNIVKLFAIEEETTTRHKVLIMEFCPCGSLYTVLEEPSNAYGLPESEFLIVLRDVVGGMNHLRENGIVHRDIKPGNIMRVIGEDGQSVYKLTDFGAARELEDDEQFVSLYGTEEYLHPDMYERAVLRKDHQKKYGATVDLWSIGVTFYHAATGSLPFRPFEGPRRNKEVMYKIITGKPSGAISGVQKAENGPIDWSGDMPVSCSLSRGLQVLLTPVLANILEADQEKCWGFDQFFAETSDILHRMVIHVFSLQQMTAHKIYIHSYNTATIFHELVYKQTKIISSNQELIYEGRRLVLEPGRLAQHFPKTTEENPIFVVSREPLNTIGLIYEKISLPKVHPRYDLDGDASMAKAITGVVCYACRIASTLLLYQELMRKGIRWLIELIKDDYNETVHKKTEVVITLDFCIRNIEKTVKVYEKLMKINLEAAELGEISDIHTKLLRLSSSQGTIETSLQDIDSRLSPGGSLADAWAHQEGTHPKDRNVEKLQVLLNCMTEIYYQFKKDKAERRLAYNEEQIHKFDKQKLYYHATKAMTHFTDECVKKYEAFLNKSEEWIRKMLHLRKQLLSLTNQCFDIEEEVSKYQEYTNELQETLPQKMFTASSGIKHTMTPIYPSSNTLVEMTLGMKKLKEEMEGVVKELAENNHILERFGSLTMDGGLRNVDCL
The conditions noted are these: kinase TBK1 (Part I, plate G1, Domain 0); inhibitor 100 uM.
Description: as §1

Sequence of kinases of Table 5 (Homo sapiens, UniProt P07949) (P07949 29-1114): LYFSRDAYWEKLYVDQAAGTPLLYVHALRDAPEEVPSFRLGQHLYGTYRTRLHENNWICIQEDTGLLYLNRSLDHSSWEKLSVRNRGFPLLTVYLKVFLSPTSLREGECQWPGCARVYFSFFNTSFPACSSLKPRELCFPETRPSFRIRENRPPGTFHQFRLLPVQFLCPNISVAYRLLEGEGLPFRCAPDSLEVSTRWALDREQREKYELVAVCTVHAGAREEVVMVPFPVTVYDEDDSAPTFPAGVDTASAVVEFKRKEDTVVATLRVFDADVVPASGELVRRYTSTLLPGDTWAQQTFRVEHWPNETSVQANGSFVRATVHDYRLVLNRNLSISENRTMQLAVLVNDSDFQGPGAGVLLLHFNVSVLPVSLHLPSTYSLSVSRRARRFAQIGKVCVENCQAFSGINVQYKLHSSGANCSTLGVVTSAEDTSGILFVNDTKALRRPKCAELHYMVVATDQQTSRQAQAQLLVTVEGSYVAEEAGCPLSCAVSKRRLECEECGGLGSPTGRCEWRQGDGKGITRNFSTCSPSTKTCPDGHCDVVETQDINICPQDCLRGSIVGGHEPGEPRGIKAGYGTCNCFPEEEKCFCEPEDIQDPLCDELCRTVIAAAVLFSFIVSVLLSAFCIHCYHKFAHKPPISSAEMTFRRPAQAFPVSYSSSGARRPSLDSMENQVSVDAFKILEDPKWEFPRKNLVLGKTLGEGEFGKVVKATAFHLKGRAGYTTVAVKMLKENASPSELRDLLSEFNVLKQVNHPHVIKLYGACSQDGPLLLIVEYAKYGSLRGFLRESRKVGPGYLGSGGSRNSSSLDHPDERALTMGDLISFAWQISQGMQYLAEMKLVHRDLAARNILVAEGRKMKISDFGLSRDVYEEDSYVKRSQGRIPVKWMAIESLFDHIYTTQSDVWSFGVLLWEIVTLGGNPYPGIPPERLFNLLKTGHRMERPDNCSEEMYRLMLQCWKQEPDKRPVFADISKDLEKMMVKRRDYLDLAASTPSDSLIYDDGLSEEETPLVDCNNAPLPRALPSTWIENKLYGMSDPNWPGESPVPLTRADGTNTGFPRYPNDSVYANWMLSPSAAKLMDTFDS

For the compound `O=c1c(-c2ccc(O)cc2)coc2cc(O)cc(O)c12` [Genistein], the results for the Inhibition level in assay [1] (concentration not given) and in assay [1] (inhibitor 100 uM) were 0 and 2, respectively. In addition, the “Inhibition Results (Level)” value in assay [2] (inhibitor 100 uM) was found to be 2; in assay [2] (inhibitor <3.7 mM), 0; in assay [3], 2; in assay [4], 2.

For the compound `N#C/C(=C/c1ccc(O)c(O)c1)C(=O)NCc1ccccc1` [AG 490], the Inhibition level in assay [1] (inhibitor 100 uM) was 2. The “Inhibition Results (Level)” value in assay [2] (inhibitor 100 uM) worked out at 2; in assay [3], 1; in assay [4], 2.

`COc1cc2ncnc(Nc3cccc(Cl)c3)c2cc1OC` [AG 1478] had an Inhibition level in assay [1] (inhibitor 100 uM) of 2. In addition, the “Inhibition Results (Level)” value in assay [2] (inhibitor 100 uM), in assay [3] and in assay [4] was 2 throughout.

Take `CC(=O)c1c(O)c(C)c(O)c(Cc2c(O)c3c(c(C(=O)/C=C/c4ccccc4)c2O)OC(C)(C)C=C3)c1O` [Rottlerin (Mallotoxin)]: the “Inhibition Results (Level)” value in assay [1] (inhibitor 100 uM) is on record as 0; in assay [2] (inhibitor 100 uM), 2; in assay [3] it was 1; in assay [4], 1.

`O=S(=O)(NCCNC/C=C/c1ccc(Br)cc1)c1cccc2cnccc12` [H-89]: the “Inhibition Results (Level)” value in assay [1] (inhibitor 100 uM) is given as 0; in assay [2] (inhibitor 100 uM) it was 2; in assay [3], 1; in assay [4], 2.

`CC(C)(C)n1nc(-c2ccc(Cl)cc2)c2c(N)ncnc21` [PP2] came in with an Inhibition level in assay [1] (inhibitor 100 uM) of 2. Also, the “Inhibition Results (Level)” value in assay [2] (inhibitor 100 uM) is 2; in assay [3], 2; in assay [4], 1.

On to `O=c1c(O)c(-c2ccc(O)c(O)c2)oc2cc(O)cc(O)c12` [Quercetin], for which the “Inhibition Results (Level)” value in assay [2] (inhibitor 100 uM) is given as 2; in assay [3], 1; in assay [4], 0.

On to `Cn1cc(C2=C(c3cn(CCCSC(=N)N)c4ccccc34)C(=O)NC2=O)c2ccccc21` [Ro-31-8220], for which the Inhibition level in assay [1] (concentration not given) is reported as 2; in assay [1] (inhibitor 100 uM), 0. Further, the “Inhibition Results (Level)” value turned out to be 0 in assay [2] (inhibitor 90 uM), 2 in assay [2] (inhibitor 100 uM), 2 in assay [3] and 2 in assay [4].
